Values quoted from earlier work, collected in patent US20230285483A1, “TINCTURE CONTAINING CANNABINOIDS, METHOD OF USING, AND METHOD OF MAKING THE SAME” (priority 2022, published 2023).

Legend:
[1] = system: coronavirus; settings: study by researchers at Oregon State University
[2] = target: spike proteins found on the virus (Severe acute respiratory syndrome coronavirus 2, UniProt P0DTC2); settings: study by researchers at Oregon State University

SMILES	blocking of a step the pathogen uses to infect people [1]	binding to spike proteins found on the virus [2]
C=C(C)[C@@H]1CCC(C)=C[C@H]1c1c(O)cc(CCCCC)c(C(=O)O)c1O [CBDa, cannabidiolic acid]	blocked a step the pathogen uses to infect people	bind to spike proteins
CCCCCc1cc(O)c(C/C=C(\C)CCC=C(C)C)c(O)c1C(=O)O [CBGa, cannabigerolic acid]	blocked a step the pathogen uses to infect people	bind to spike proteins
